≈ marks a conversion by molar mass, not a printed value.
Tests used:
[1] = test system: M. tuberculosis wild-type strain; test: MIC against wild-type M. tuberculosis; type: cell-based, Mycobacterium tuberculosis; conditions: concentration required to inhibit growth by 90%, 5 days culture; for MIC: Mycobacterium tuberculosis, 120 h, read-out: MIC Wild type
[2] = test system: M. tuberculosis strain under expressing LepB (LepB-UE); test: microbe, parasite or virus in culture; type: cell-based, Mycobacterium tuberculosis; conditions: for MIC: Mycobacterium tuberculosis, 120 h
[3] = test system: HepG2 cells; test: HepG2 cytotoxicity; type: cell-based, human; conditions: 3 days exposure, CellTiter-Glo
Procedure: HepG2 cells were used to measure eukaryotic cytotoxicity. Viability of HepG2 was measured using CellTiter-Glo reagent (Promega) after 3 days of exposure to compounds. […] Staurosporine controls (maximum inhibition) and a staurosporine dose response were included on every plate.

[4] = in vitro; conditions: human; for Papp A→B at 2 h, 10 µM / Papp B→A at 2 h, 10 µM / efflux ratio at 2 h, 10 µM: Caco-2
Procedure: (§1) Permeability was measured across Caco-2 cells cultured in a Millipore 96-well Caco-2 plate. For apical to basolateral (A→B) permeability, 10 μM compound was added to the apical (A) side and amount of permeation was determined on the basolateral (B) side; for basolateral to apical (B→A) permeability, the compound was added to the B side and the amount of permeation was determine on the A side. Time points were taken at 2 h.
(§2) Table S2. Permeability. Permeability was measured using Caco-2 cells after 1 and 2 hours incubation with compound. (A→B) is Apical to Basolateral; (B→A) is Basolateral to Apical. Data is expressed as permeability (10-6 cm s-1). dQ/dt is rate of permeation, C0 is initial concentration […]
(§3) Article Duration direction value replicate replicate mean recovery

[5] = test system: Caco-2 cells; test: Caco-2 permeability; conditions: for recovery: human, 10 μM
Procedure: as §1, §2, §3

[6] = Microsomal metabolic stability; conditions: human, pH 7.4; for half-life at 1 µM: liver microsomes; for microsomal CLint at 1 µM: microsomes
Procedure: as §1
Table S3. Metabolic stability. Metabolic stability was measured using human liver microsomes. […]

[7] = target: SPase activity in M. tuberculosis H37Rv cell membrane fractions (Mycobacterium tuberculosis, UniProt P9WKA1); test: Inhibition of secretion (SPase activity) in membrane fractions; type: biochemical; conditions: fluorogenic peptide substrate 2 μM; 4 h, 37 °C
[8] = target: T1, CYP2B6 (Homo sapiens, UniProt P20813); test: Cytochrome P450 inhibition
T1 sequence (P20813 1-491): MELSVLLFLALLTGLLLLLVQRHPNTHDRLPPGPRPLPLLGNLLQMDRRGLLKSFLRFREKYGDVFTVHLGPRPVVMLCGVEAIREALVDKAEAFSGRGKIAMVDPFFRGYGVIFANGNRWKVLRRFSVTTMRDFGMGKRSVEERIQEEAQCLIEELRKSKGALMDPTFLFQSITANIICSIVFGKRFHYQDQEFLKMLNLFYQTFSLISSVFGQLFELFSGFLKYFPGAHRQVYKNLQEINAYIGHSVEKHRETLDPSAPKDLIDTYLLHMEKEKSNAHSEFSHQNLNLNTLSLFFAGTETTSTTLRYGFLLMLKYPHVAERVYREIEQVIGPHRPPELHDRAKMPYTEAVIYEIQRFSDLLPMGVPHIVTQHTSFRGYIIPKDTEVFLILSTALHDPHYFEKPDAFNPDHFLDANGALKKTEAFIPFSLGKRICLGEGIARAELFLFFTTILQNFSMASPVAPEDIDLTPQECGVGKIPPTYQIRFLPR
Procedure: (§4) Table S4. Inhibition of cytochrome P450s.
(§5) Compounds were tested for inhibition of P450s using the enzyme substrate pairs and conditions noted. IC50s (µM) were calculated. Control P450 inhibitors were included for each isoform.
(§6) For each compound, the analytical method was developed as follows. Analyte signal was optimized for each compound by ESI positive or negative ionization mode. An MS2 scan or an SIM scan was used to optimize fragmenter voltage and a product ion analysis was used to identify the best fragment for analysis. The collision energy was optimized using a product ion or MRM scan. An ionization ranking was assigned indicating the compound’s ease of ionization. Samples […]
(§7) 1200 HPLC and a CTC PAL chilled autosampler, all controlled by MassHunter software (Agilent).
(§8) After separation on a C18 reverse phase HPLC column (Agilent Zorbax StableBond 3.5µm, 2.1 x 30 mm) using an acetonitrile -water gradient system, peaks were analyzed by mass spectrometry (MS) using ESI ionization in MRM mode.
(§9) (1 picture or pasted object on this page, not shown here)
(§10) Serial dilutions of a 10 mM stock solution were prepared in acetonitrile:DMSO (9:1). The final DMSO concentration was < 0.2%. Compounds were incubated with human liver microsomes in the presence of 2 mM NADPH in 100 mM potassium phosphate (pH 7.4) containing 5 mM magnesium chloride and a probe substrate, in a 200 µl assay final volume in duplicate. The probe substrate concentrations including bupropion (CYP2B6), amodiaquine (CYP2C8), tolbutamide (CYP2C9), mephenytoin (CYP2C19), dextromethorphan (CYP2D6) and midazolam/testosterone […]
(§11) After incubation at 37 °C, reactions were terminated by addition of methanol containing internal standard (propranolol) for analytical quantification. The quenched samples were kept on ice for 10 min and centrifuged at 4 °C for 10 min. The supernatant was removed and the probe substrate metabolite was analyzed by LC-MS/MS (Agilent Technologies Triple Quad LC/MS). A decrease in the formation of the metabolite compared to vehicle control

[9] = target: CYP2C19 (Homo sapiens, UniProt P33261); test: biochemical
Procedure: as §4, §5, §6, §7, §8, §9, §10, §11

[10] = target: T2, CYP2C8 (Homo sapiens, UniProt P10632); test: biochemical
T2 sequence (P10632 1-490): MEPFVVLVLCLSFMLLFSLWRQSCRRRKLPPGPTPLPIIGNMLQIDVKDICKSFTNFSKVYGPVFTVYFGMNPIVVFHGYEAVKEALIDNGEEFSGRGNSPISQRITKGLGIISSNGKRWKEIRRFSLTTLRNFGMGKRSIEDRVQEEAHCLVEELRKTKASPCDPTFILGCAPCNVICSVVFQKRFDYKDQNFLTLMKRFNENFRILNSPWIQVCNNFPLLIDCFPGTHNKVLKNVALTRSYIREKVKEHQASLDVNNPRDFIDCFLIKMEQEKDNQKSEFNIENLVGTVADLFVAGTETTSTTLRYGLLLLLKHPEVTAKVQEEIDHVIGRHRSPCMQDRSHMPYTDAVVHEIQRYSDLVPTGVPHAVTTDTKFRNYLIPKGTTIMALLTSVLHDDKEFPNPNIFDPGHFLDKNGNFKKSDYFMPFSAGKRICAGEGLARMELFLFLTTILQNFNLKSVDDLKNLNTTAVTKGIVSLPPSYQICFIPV
Procedure: as §4, §5, §6, §7, §8, §9, §10, §11

[11] = target: CYP2C9 (Homo sapiens, UniProt P11712); test: biochemical
Procedure: as §4
(§12) Compounds were tested for inhibition of P450s using the enzyme substrate pairs and conditions noted. IC50s (µM) were calculated. Control P450 inhibitors were included for each isoform. […]
as §10, §11

[12] = target: CYP2D6 (Homo sapiens, UniProt P10635); test: biochemical
Procedure: as §4, §12, §7, §8, §10, §11

[13] = target: CYP3A4 (Homo sapiens, UniProt P08684); test: Cytochrome P450 inhibition; type: in vitro ADME; conditions: liver microsomes
Procedure: as §4, §5, §6, §7, §8, §9, §10, §11

[14] = Plasma protein binding (Rapid Equilibrium Dialysis); type: in vitro ADME, human; conditions: human; for fraction unbound at 4 h, 5 µM: plasma
Procedure: Molecule fraction fraction Post-Assay
Table S5. Plasma protein binding
Protein binding was measured in human plasma using Rapid Equilibrium Dialysis (RED) devices (Pierce) according to the manufacturers’ instructions; 5 µM compounds in plasma were dialysed against PBS for 4 h at 37C. Compounds were detected by LC-MS/MS in plasma and PBS

[15] = test system: RAW 264.7 macrophages; test: Cytotoxicity against infected macrophages; type: cell-based, murine; conditions: Mus musculus; infected RAW264:7 cells, 72 h; read-out: IC50 Macrophage
Procedure: Murine RAW 264.7 macrophages (ATCC TIB-71) were infected with M. tuberculosis DsRed (DREAM8) ([29]) as described at a multiplicity of infection of 1 for 24 h, washed, harvested, and dispensed into 384-well plates ([30]). Infected macrophages were exposed to compounds for 72 h; cell nuclei were stained with SYBR green I. Plates were imaged with an ImageXpress Micro High Content Screening System (Molecular Devices) using a ×4 objective and FITC and Texas Red channels. MetaXpress was used to determine the integrated intensity of bacteria or macrophages. […] Isoniazid and staurosporine controls (maximum inhibition) and dose responses were included on every plate.

[16] = test system: nonreplicating M. tuberculosis; test: Kill kinetics, nonreplicating (nutrient starved) bacteria; type: cell-based, Mycobacterium tuberculosis; conditions: nutrient starvation, PBS-tyloxapol
[17] = test system: replicating M. tuberculosis; test: Kill kinetics, replicating bacteria; conditions: aerobic growth
[18] = Mean plasma fraction Unbound Fuplasma

Chain of CYP3A4 (P08684 2-503): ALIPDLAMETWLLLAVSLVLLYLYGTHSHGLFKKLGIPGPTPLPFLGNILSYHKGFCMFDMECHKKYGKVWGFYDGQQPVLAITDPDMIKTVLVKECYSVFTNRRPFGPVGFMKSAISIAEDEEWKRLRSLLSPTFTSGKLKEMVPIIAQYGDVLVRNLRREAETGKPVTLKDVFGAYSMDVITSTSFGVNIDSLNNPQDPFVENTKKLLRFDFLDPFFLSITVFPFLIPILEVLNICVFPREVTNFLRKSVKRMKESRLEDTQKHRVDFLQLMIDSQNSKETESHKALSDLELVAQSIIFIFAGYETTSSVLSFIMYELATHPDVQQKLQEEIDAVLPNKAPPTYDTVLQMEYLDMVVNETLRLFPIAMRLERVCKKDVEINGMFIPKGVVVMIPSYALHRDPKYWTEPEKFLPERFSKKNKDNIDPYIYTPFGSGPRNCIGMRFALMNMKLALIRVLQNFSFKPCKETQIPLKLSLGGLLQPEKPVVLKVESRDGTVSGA
Chain of CYP2D6 (P10635 whole entry): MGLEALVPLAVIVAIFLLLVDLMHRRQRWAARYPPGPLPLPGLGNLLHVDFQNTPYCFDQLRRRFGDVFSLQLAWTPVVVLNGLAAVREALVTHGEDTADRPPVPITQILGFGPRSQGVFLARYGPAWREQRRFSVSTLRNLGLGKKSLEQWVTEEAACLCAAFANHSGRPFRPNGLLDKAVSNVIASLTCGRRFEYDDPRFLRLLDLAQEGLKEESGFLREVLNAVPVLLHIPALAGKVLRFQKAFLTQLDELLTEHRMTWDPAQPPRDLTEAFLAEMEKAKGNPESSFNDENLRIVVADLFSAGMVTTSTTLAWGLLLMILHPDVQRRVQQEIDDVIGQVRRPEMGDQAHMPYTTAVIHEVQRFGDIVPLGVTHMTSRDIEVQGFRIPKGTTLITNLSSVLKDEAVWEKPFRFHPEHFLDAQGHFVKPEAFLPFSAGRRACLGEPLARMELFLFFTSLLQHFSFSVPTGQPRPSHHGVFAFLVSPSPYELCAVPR
Chain of CYP2C9 (P11712 whole entry): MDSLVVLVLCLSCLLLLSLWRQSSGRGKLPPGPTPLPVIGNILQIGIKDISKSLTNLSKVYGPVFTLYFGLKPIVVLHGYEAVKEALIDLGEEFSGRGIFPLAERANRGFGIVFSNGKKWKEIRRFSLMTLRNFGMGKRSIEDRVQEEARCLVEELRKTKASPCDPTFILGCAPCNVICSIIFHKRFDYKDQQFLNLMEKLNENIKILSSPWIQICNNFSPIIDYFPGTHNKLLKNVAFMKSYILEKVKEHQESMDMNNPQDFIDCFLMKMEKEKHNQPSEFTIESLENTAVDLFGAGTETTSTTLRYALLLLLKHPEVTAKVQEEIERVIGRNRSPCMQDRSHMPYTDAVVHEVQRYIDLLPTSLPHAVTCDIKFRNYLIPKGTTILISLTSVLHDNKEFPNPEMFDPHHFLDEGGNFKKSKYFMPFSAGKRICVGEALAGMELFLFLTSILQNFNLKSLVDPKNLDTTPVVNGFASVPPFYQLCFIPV
Chain of CYP2C19 (P33261 whole entry): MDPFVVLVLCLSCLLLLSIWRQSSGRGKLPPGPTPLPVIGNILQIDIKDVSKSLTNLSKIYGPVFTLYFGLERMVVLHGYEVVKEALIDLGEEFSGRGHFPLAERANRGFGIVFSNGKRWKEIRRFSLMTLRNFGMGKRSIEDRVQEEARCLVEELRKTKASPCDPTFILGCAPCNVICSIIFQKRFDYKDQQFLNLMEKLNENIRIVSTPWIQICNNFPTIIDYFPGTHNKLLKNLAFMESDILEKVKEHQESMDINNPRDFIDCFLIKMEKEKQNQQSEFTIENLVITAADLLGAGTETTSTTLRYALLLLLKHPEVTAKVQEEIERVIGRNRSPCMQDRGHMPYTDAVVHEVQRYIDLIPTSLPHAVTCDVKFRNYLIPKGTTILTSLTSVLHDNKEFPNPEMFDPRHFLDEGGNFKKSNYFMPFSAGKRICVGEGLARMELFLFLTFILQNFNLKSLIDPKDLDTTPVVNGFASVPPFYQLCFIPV
Chain of SPase activity in M. tuberculosis H37Rv cell membrane fractions (P9WKA1 whole entry): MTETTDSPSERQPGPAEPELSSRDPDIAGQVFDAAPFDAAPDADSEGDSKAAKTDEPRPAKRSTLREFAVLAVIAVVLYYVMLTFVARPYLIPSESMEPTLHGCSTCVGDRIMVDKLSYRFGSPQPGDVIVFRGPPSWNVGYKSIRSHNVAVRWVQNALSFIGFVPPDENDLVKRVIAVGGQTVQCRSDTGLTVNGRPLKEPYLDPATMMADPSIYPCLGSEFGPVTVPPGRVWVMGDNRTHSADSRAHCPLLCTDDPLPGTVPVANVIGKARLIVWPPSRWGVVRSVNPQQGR

Row | SMILES | MIC [1] | MIC Wild type [1] | MIC LepB-UE [2] | MIC [2] | IC50 ([3]; Homo sapiens, HepG2, 72 h) | Papp A→B at 2 h, 10 µM [4] | Papp B→A at 2 h, 10 µM [4] | efflux ratio at 2 h, 10 µM [4] | dQ/dt (rate of permeation), mean ([5]; A→B, assay duration 1 hr) | dQ/dt (rate of permeation), mean ([5]; A→B, assay duration 2 hr) | dQ/dt (rate of permeation), mean ([5]; B→A, assay duration 1 hr) | dQ/dt (rate of permeation), mean ([5]; B→A, assay duration 2 hr) | half-life at 1 µM [6] | microsomal CLint at 1 µM [6] | IC50 [7] | IC50 [8] | IC50 [9] | IC50 [10] | IC50 [11] | IC50 [12] | other results
1 | CCCCNC(=S)Nc1nc2ccccc2o1 [Molecule 12, 1-(benzo[d]oxazol-2-yl)-3-butylthiourea] | 23 to 32 µM (≈ 5.73 to 7.98 µg/mL) | 23 ± 9.0 µM (≈ 5.73 µg/mL) | 32 ± 11 µM (≈ 7.98 µg/mL) | 23 to 32 µM (≈ 5.73 to 7.98 µg/mL) | 21 ± 19 µM | 4.9 ×10⁻⁶ cm/s | 5.8 ×10⁻⁶ cm/s | 1.2 | 3.4E-05 | 3.2E-05 | 2.7E-05 | 3.0E-05 | 11 min | 218 µL/min/mg | > 200 µM | > 20 µM | 12.7 µM | > 20 µM | > 20 µM | > 20 µM | IC50 at 10 min ([13]; pH 7.4, probe midazolam): > 20 µM; IC50 at 10 min ([13]; pH 7.4, probe testosterone): > 20 µM; recovery at 4 h, 5 µM [14]: 80.1%; fraction unbound at 4 h, 5 µM ([14]; Mean plasma fraction Bound): 0.002; fraction unbound at 4 h, 5 µM [14, 18]: 0.002
2 | Cc1coc(NC(=S)NCC(C)C)n1 [Molecule 29, 1-isobutyl-3-(4-methyloxazol-2-yl)thiourea] | 20 to 40 µM (≈ 4.27 to 8.53 µg/mL) | 20 ± 23 µM (≈ 4.27 µg/mL) | 12 ± 1.0 µM (≈ 2.56 µg/mL) | 12 to 21 µM (≈ 2.56 to 4.48 µg/mL) | 27 to 78 µM |  |  |  |  |  |  |  |  |  |  |  |  |  |  |  | IC50 [3]: 27 ± 6 µM; IC50 [15]: 8.1 ± 1.6 µM; concentration giving sterilization of nonreplicating organisms [16]: 100 µM; concentration with bactericidal activity (defined as 3 log kill) [17]: 27.5 μM
3 | CCCCNC(=S)Nc1nccs1 [Molecule 14, 1-butyl-3-(thiazol-2-yl)thiourea] | 34 µM (≈ 7.32 µg/mL) | 34 ± 3.0 µM (≈ 7.32 µg/mL) | 41 ± 0.1 µM (≈ 8.83 µg/mL) | 41 µM (≈ 8.83 µg/mL) | 75 ± 26 µM | 22 ×10⁻⁶ cm/s | 18 ×10⁻⁶ cm/s | 0.81 | 2.6E-04 | 1.5E-04 | 2.3E-04 | 1.6E-04 | 26 min | 89 µL/min/mg | > 200 µM | > 20 µM | 13.5 µM | > 20 µM | 13.2 µM | > 20 µM | recovery at 1 h, 10 μM ([4]; Caco-2, recovery): 57%; recovery at 2 h, 10 μM ([4]; Caco-2, recovery): 59%; recovery ([5]; Caco-2, 1 h): 72%; recovery ([5]; Caco-2, 2 h): 65%; IC50 at 10 min ([13]; pH 7.4, probe midazolam): > 20 µM; IC50 at 10 min ([13]; pH 7.4, probe testosterone): > 20 µM; recovery at 4 h, 5 µM [14]: 83.8%; fraction unbound at 4 h, 5 µM ([14]; Mean plasma fraction Bound): 0.01; fraction unbound at 4 h, 5 µM [14, 18]: 0.0098

— article PMC9927457 (Microbiology Spectrum, 2023)
